In the assay the test system is CD2F1 mice, L1210 leukemia ip, survival T/C. The experiment in a line: NCI In Vivo Anticancer Drug Screen. Data for tumor model L1210 Leukemia (intraperitoneal) in CD2F1 (CDF1) mice. To be noted: higher = longer survival. Put shortly: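 Read-out first: treated-group measurement over vehicle-control measurement, expressed as a ratio. Animals bore a transplanted tumor line and were dosed with compound or vehicle.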

[1] abbreviates: endpoint: mean survival time, dose: 25.0 mg/kg/injection, schedule: Q01DX009 (ip), vehicle: saline with Tween-80.
[2] abbreviates: endpoint: mean survival time, dose: 50.0 mg/kg/injection, schedule: Q01DX009 (ip), vehicle: saline with Tween-80.
The mark [3] stands for this setting: endpoint: mean survival time, dose: 100.0 mg/kg/injection, schedule: Q01DX009 (ip), vehicle: saline with Tween-80.
Setting [4] is: endpoint: mean survival time, dose: 200.0 mg/kg/injection, schedule: Q01DX009 (ip), vehicle: saline with Tween-80.
The mark [5] stands for this setting: endpoint: mean survival time, dose: 400.0 mg/kg/injection, schedule: Q01DX009 (ip), vehicle: saline with Tween-80.
Setting [6] is: endpoint: mean survival time, dose: 100.0 mg/kg/injection, schedule: Q04DX002 (ip), vehicle: saline with Tween-80.
The mark [7] stands for this setting: endpoint: mean survival time, dose: 100.0 mg/kg/injection, schedule: Q01DX001 (ip), vehicle: saline with Tween-80.
Where [8] appears, read: endpoint: mean survival time, dose: 12.5 mg/kg/injection, schedule: Q01DX009 (ip), vehicle: saline with Tween-80.
Where [9] appears, read: endpoint: mean survival time, dose: 25.0 mg/kg/injection, schedule: Q04DX003 (ip), vehicle: saline with Tween-80.
The mark [10] stands for this setting: endpoint: mean survival time, dose: 50.0 mg/kg/injection, schedule: Q04DX003 (ip), vehicle: saline with Tween-80.

21 compounds from PubChem BioAssay AID256 (DTP/NCI, 2004) can be followed below.

Values joined by “and” are separate entries in the source; they are usually repeats but may differ in a detail not shown here. Equal entries are not always repeated. Inconclusive results and toxic doses are left out.

On to `Nc1nc2c(ncn2C2OC(CO)C(O)C2O)c(=O)[nH]1` (configuration not stated), for which the T/C by setting is: under setting [1], 98 % of control and 105 % of control; under setting [2], 101 % of control and 103 % of control; under setting [3], 98 % of control and 102 % of control; under setting [4], 95 % of control and 104 % of control; under setting [5], 101 % of control and 104 % of control; (endpoint: mean survival time, dose: 800.0 mg/kg/injection, schedule: Q01DX009 (ip), vehicle: saline with Tween-80) 98 % of control and 110 % of control. For the same compound, the T/C by setting is: (endpoint: median survival time, dose: 1000.0 mg/kg/injection, schedule: Q01DX009 (ip), vehicle: saline with Tween-80) 106 % of control; (endpoint: median survival time, dose: 1500.0 mg/kg/injection, schedule: Q01DX009 (ip), vehicle: saline with Tween-80) 89 % of control; (endpoint: median survival time, dose: 2000.0 mg/kg/injection, schedule: Q01DX009 (ip), vehicle: saline with Tween-80) 91 % of control and 108 % of control.

Turning to `O=C=NC(=O)c1ccccc1`, the T/C was 96 % of control under setting [6]; 100 % of control (endpoint: mean survival time, dose: 200.0 mg/kg/injection, schedule: Q04DX002 (ip), vehicle: saline with Tween-80); 118 % of control (endpoint: mean survival time, dose: 400.0 mg/kg/injection, schedule: Q04DX002 (ip), vehicle: saline with Tween-80).

Take `O=[N+]([O-])O.[NH-]C1CCCCC1[NH-].[NH-]C1CCCCC1[NH-].[NH-]C1CCCCC1[NH-].[OH-].[OH-].[OH-].[Pt+4].[Pt+4].[Pt+4]` (configuration not stated): under “endpoint: mean survival time, dose: 20.0 mg/kg/injection, schedule: Q04DX003 (ip), vehicle: water”, the T/C was 87 % of control.

As for `CC(C)=CCOC1=CC(=O)C(=O)c2ccccc21`, under setting [7], the T/C was 103 % of control.

As for `Clc1ccc2nc(C(Cl)(Cl)Cl)nc(NCCN3CCCCC3)c2c1`, the T/C was 89 % of control under setting [2]; 113 % of control under setting [3]; 97 % of control under setting [4]; 91 % of control (endpoint: mean survival time, dose: 200.0 mg/kg/injection, schedule: Q04DX003 (ip), vehicle: saline with Tween-80).

In the case of `CC1(C)CC(O)(Cc2ccccc2)C(C)(O)c2ccccc21` (configuration not stated), the T/C is 102 % of control under setting [3], 88 % of control under setting [4] and 86 % of control under setting [5].

Consider `COc1cc(CNC(=O)/C(C)=C/Cl)ccc1O`, for which the T/C is 96 % of control under setting [8], 95 % of control under setting [1] and 101 % of control under setting [2].

`[Cl][Pd][Cl]`: the T/C is, setting by setting: (endpoint: mean survival time, dose: 12.5 mg/kg/injection, schedule: Q01DX009 (ip), vehicle: saline sonified) 95 % of control; (endpoint: mean survival time, dose: 12.5 mg/kg/injection, schedule: Q04DX003 (ip), vehicle: saline with Tween-80) 107 % of control; under setting [9], 103 % of control; under setting [10], 91 % of control.

`COc1ccc(CNCCO)cc1O`: the T/C was 101 % of control (endpoint: mean survival time, dose: 100.0 mg/kg/injection, schedule: Q01DX001 (ip), vehicle: saline); 98 % of control (endpoint: mean survival time, dose: 200.0 mg/kg/injection, schedule: Q01DX001 (ip), vehicle: saline); 98 % of control (endpoint: mean survival time, dose: 400.0 mg/kg/injection, schedule: Q01DX001 (ip), vehicle: saline).

With `CC(C)c1ccccc(=O)c1O.CC(C)c1ccccc(=O)c1O.[Cu]`, the T/C runs as follows: (endpoint: mean survival time, dose: 6.25 mg/kg/injection, schedule: Q01DX009 (ip), vehicle: saline with Tween-80) 102 % of control; under setting [8], 100 % of control; under setting [1], 103 % of control.

With `O=C(Nc1cccc([N+](=O)[O-])c1)c1ccc(Cl)cc1Cl`, the T/C under setting [3] was 90 % of control, the T/C under setting [4] was 92 % of control and the T/C under setting [5] was 90 % of control.

As for `N#C/C(=C/Cc1ccccc1)Nc1ccccc1`, the T/C by setting is: under setting [3], 97 % of control; (endpoint: mean survival time, dose: 100.0 mg/kg/injection, schedule: Q04DX003 (ip), vehicle: saline sonified) 97 % of control; under setting [4], 101 % of control; (endpoint: mean survival time, dose: 200.0 mg/kg/injection, schedule: Q04DX003 (ip), vehicle: saline sonified) 97 % of control; under setting [5], 87 % of control; (endpoint: mean survival time, dose: 400.0 mg/kg/injection, schedule: Q04DX003 (ip), vehicle: saline sonified) 96 % of control.

As to `C[N+](C)(CC(=O)Nc1cccc(C(F)(F)F)c1)CC(=O)Nc1cccc(C(F)(F)F)c1`, the T/C runs as follows: under setting [9], 100 % of control; under setting [10], 88 % of control.

Take `COc1cc2cc(c1Cl)N(C)C(=O)CC(OC(=O)C(C)C)C1(C)OC1C(C)C1CC(O)(NC(=O)O1)C(OC)/C=C/C=C(C)C2` (configuration not stated): the T/C runs as follows: (endpoint: mean survival time, dose: 3.8 micrograms/kg/injection, schedule: Q01DX009 (ip), vehicle: saline + alcohol) 100 % of control; (endpoint: mean survival time, dose: 7.5 micrograms/kg/injection, schedule: Q01DX009 (ip), vehicle: saline + alcohol) 97 % of control; (endpoint: mean survival time, dose: 15.0 micrograms/kg/injection, schedule: Q01DX009 (ip), vehicle: saline + alcohol) 114 % of control; (endpoint: mean survival time, dose: 30.0 micrograms/kg/injection, schedule: Q01DX009 (ip), vehicle: saline + alcohol) 111 % of control; (endpoint: mean survival time, dose: 60.0 micrograms/kg/injection, schedule: Q01DX009 (ip), vehicle: saline + alcohol) 111 % of control.

Turning to `CCC1(O)C(=O)OCc2c1cc1n(c2=O)Cc2cc3ccc(CO)cc3nc2-1` (configuration not stated), the T/C is, setting by setting: (endpoint: median survival time, dose: 4.0 mg/kg/injection, schedule: Q04DX002 (ip), vehicle: saline with Tween-80) 100 % of control; (endpoint: median survival time, dose: 8.0 mg/kg/injection, schedule: Q04DX002 (ip), vehicle: saline with Tween-80) 113 % of control; (endpoint: median survival time, dose: 16.0 mg/kg/injection, schedule: Q04DX002 (ip), vehicle: saline with Tween-80) 98 % of control; (endpoint: median survival time, dose: 32.0 mg/kg/injection, schedule: Q04DX002 (ip), vehicle: saline with Tween-80) 108 % of control.

For the compound `COc1ccc(OC)c(/C=C/c2ccnc3ccccc23)c1`, the T/C (endpoint: median survival time, dose: 50.0 mg/kg/injection, schedule: Q01DX009 (ip), vehicle: saline with Tween-80) is 102 % of control; the T/C (endpoint: median survival time, dose: 100.0 mg/kg/injection, schedule: Q01DX009 (ip), vehicle: saline with Tween-80) is 101 % of control; the T/C (endpoint: median survival time, dose: 200.0 mg/kg/injection, schedule: Q01DX009 (ip), vehicle: saline with Tween-80) was 108 % of control; the T/C (endpoint: median survival time, dose: 400.0 mg/kg/injection, schedule: Q01DX009 (ip), vehicle: saline with Tween-80) is 113 % of control.

With `CC(C)(C(=O)O)C(=O)O`, the T/C is, setting by setting: (endpoint: mean survival time, dose: 50.0 mg/kg/injection, schedule: Q04DX003 (ip), vehicle: saline) 97 % of control; (endpoint: mean survival time, dose: 100.0 mg/kg/injection, schedule: Q04DX003 (ip), vehicle: saline) 94 % of control; (endpoint: mean survival time, dose: 200.0 mg/kg/injection, schedule: Q04DX003 (ip), vehicle: saline) 100 % of control.

On to `O=C(O)C1C2CC(C1C(=O)O)C(C(=O)O)C2C(=O)O` (configuration not stated), for which the T/C runs as follows: under setting [7], 94 % of control; under setting [3], 87 % of control; (endpoint: mean survival time, dose: 200.0 mg/kg/injection, schedule: Q01DX001 (ip), vehicle: saline with Tween-80) 88 % of control; under setting [4], 87 % of control; (endpoint: mean survival time, dose: 400.0 mg/kg/injection, schedule: Q01DX001 (ip), vehicle: saline with Tween-80) 95 % of control.

Take `COc1cccc2c1C(=O)c1c(O)c3c(c(O)c1C2=O)CC(O)(C(=O)CO)CC3OC1CC(N)C(O)C(C)O1` (configuration not stated): the T/C (endpoint: mean survival time, dose: 0.31 mg/kg/injection, schedule: Q04DX003 (ip), vehicle: saline) is 120 % of control; the T/C (endpoint: mean survival time, dose: 0.62 mg/kg/injection, schedule: Q04DX003 (ip), vehicle: saline) was 120 % of control; the T/C (endpoint: mean survival time, dose: 3.13 mg/kg/injection, schedule: Q01DX009 (ip), vehicle: water) was 117 % of control; the T/C (endpoint: mean survival time, dose: 6.25 mg/kg/injection, schedule: Q01DX009 (ip), vehicle: water) is 123 % of control; the T/C (endpoint: mean survival time, dose: 12.5 mg/kg/injection, schedule: Q01DX009 (ip), vehicle: water) was 202 % of control; the T/C (endpoint: mean survival time, dose: 20.0 mg/kg/injection, schedule: Q04DX003 (ip), vehicle: saline) is 152 % of control and 155 % of control. Besides, the T/C by setting is: (endpoint: mean survival time, dose: 25.0 mg/kg/injection, schedule: Q01DX009 (ip), vehicle: water) 151 % of control; (endpoint: mean survival time, dose: 36.0 mg/kg/injection, schedule: Q01DX009 (ip), vehicle: water) 150 % of control; (endpoint: mean survival time, dose: 40.0 mg/kg/injection, schedule: Q04DX003 (ip), vehicle: saline) 113 % of control; (endpoint: mean survival time, dose: 80.0 mg/kg/injection, schedule: Q04DX003 (ip), vehicle: saline) 89 % of control.

Turning to `Cc1ccc(S(=O)(=O)C[n+]2ccc(C(=O)c3ccccc3)cc2)cc1`, the T/C is, setting by setting: (endpoint: mean survival time, dose: 25.0 mg/kg/injection, schedule: Q04DX002 (ip), vehicle: saline with Tween-80) 90 % of control; (endpoint: mean survival time, dose: 50.0 mg/kg/injection, schedule: Q04DX002 (ip), vehicle: saline with Tween-80) 97 % of control; under setting [6], 97 % of control and 104 % of control.

`COc1ccc(F)cc1NC(=O)OC(C)C`: the T/C is, setting by setting: under setting [3], 92 % of control; under setting [4], 96 % of control; under setting [5], 96 % of control.
